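Where inhibition never reached the appropriate level, the endpoint shown equals the highest concentration tested. Otherwise, values were interpolated linearly from a five-concentration, 48-hour dose response in 96-well plates. GI50 = concentration required for 50% inhibition of growth.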 Active and inactive are the calls of the source. No stated cut-off is given here; in the data, active = GI50 up to about 1.1 µM and inactive = higher.
Assays:
Assay in all cases: inhibition of tumour cell growth, NCI panel, 48 h
[1] = tested on: 786-0
[2] = tested on: A498
[3] = tested on: A549
[4] = tested on: ACHN
[5] = tested on: BT-549
[6] = tested on: CAKI-1
[7] = tested on: COLO 205
[8] = tested on: DU-145
[9] = tested on: EKVX
[10] = tested on: HCC 2998
[11] = tested on: HCT-116
[12] = tested on: HCT-15
[13] = tested on: HL-60
[14] = tested on: HOP-62
[15] = tested on: HOP-92
[16] = tested on: HT-29
[17] = tested on: Hs-578T
[18] = tested on: IGROV-1
[19] = tested on: K562
[20] = tested on: KM12
[21] = tested on: LOX IMVI
[22] = tested on: M14
[23] = tested on: MCF7
[24] = tested on: MDA-MB-231
[25] = tested on: MDA-MB-435
[26] = tested on: MDA-N
[27] = tested on: MOLT-4
[28] = tested on: Malme-3M
[29] = tested on: NCI-H226
[30] = tested on: NCI-H23
[31] = tested on: NCI-H460
[32] = tested on: NCI-H522
[33] = tested on: NCI/ADR-RES
[34] = tested on: OVCAR-3
[35] = tested on: OVCAR-4
[36] = tested on: OVCAR-5
[37] = tested on: OVCAR-8
[38] = tested on: PC-3
[39] = tested on: RPMI-8226
[40] = tested on: RXF 393
[41] = tested on: SF-268
[42] = tested on: SF-295
[43] = tested on: SF-539
[44] = tested on: SK-MEL-28
[45] = tested on: SK-MEL-5
[46] = tested on: SK-OV-3
[47] = tested on: SN12C
[48] = tested on: SNB-19
[49] = tested on: SNB-75
[50] = tested on: SR
[51] = tested on: SW-620
[52] = tested on: T47D
[53] = tested on: TK-10
[54] = tested on: U-251
[55] = tested on: UACC-62
[56] = tested on: UO-31
[57] = tested on: CCRF-CEM
[58] = tested on: SK-MEL-2
[59] = tested on: UACC-257

Question: With `C=[N+](CNC(=O)CNC(=O)C(Cc1ccc([N+](=O)[O-])cc1)NC(=O)OC(C)(C)C)C(=O)CNC(=O)C(Cc1ccc([N+](=O)[O-])cc1)NC(=O)OC(C)(C)C` (stereo unspecified) as the molecule, how does the GI50 [1] read?
Answer: 69.5 µM (inactive)

Question: What about the GI50 [2] of the same molecule?
Answer: 30.7 µM (inactive)

Question: And the GI50 [3]?
Answer: > 100 µM (inactive)

Question: And the GI50 [4]?
Answer: > 100 µM (inactive)

Question: What about the GI50 [5] of the same molecule?
Answer: 28.1 µM (inactive)

Question: And the GI50 [6]?
Answer: > 100 µM (inactive)

Question: And the GI50 [7]?
Answer: 58.2 µM (inactive)

Question: What about the GI50 [8] of the same molecule?
Answer: > 100 µM (inactive)

Question: What about the GI50 [9] of the same molecule?
Answer: > 100 µM (inactive)

Question: What about the GI50 [10] of the same molecule?
Answer: 38.9 µM (inactive)

Question: And the GI50 [11]?
Answer: 36.2 µM (inactive)

Question: What about the GI50 [12] of the same molecule?
Answer: > 100 µM

Question: What about the GI50 [13] of the same molecule?
Answer: 13.3 µM (inactive)

Question: What about the GI50 [14] of the same molecule?
Answer: > 100 µM (inactive)

Question: And the GI50 [15]?
Answer: 38.1 µM (inactive)

Question: And the GI50 [16]?
Answer: 49.1 µM (inactive)

Question: And the GI50 [17]?
Answer: 26.1 µM (inactive)

Question: And the GI50 [18]?
Answer: 42.4 µM (inactive)

Question: And the GI50 [19]?
Answer: 19 µM (inactive)

Question: What about the GI50 [20] of the same molecule?
Answer: 53.1 µM (inactive)

Question: What about the GI50 [21] of the same molecule?
Answer: 15.7 µM (inactive)

Question: And the GI50 [22]?
Answer: 28.1 µM (inactive)

Question: And the GI50 [23]?
Answer: 40.8 µM (inactive)

Question: What about the GI50 [24] of the same molecule?
Answer: 25.7 µM (inactive)

Question: And the GI50 [25]?
Answer: 26.2 µM (inactive)

Question: And the GI50 [26]?
Answer: > 10 µM (inactive)

Question: And the GI50 [27]?
Answer: 17 µM (inactive)

Question: And the GI50 [28]?
Answer: 44.6 µM (inactive)

Question: And the GI50 [29]?
Answer: 60.7 µM (inactive)

Question: And the GI50 [30]?
Answer: 68.1 µM (inactive)

Question: And the GI50 [31]?
Answer: > 100 µM (inactive)

Question: What about the GI50 [32] of the same molecule?
Answer: 24.3 µM (inactive)

Question: And the GI50 [33]?
Answer: > 100 µM (inactive)

Question: And the GI50 [34]?
Answer: 50.1 µM (inactive)

Question: And the GI50 [35]?
Answer: > 100 µM (inactive)

Question: What about the GI50 [36] of the same molecule?
Answer: > 100 µM (inactive)

Question: And the GI50 [37]?
Answer: 52.7 µM (inactive)

Question: And the GI50 [38]?
Answer: 29.8 µM (inactive)

Question: And the GI50 [39]?
Answer: 16.9 µM (inactive)

Question: And the GI50 [40]?
Answer: 39.4 µM (inactive)

Question: And the GI50 [41]?
Answer: 27.8 µM (inactive)

Question: What about the GI50 [42] of the same molecule?
Answer: 46.6 µM (inactive)

Question: What about the GI50 [43] of the same molecule?
Answer: 25.1 µM (inactive)

Question: And the GI50 [44]?
Answer: 30.1 µM (inactive)

Question: And the GI50 [45]?
Answer: 35.6 µM (inactive)

Question: And the GI50 [46]?
Answer: > 100 µM (inactive)

Question: And the GI50 [47]?
Answer: 47.9 µM (inactive)

Question: What about the GI50 [48] of the same molecule?
Answer: 37 µM (inactive)

Question: And the GI50 [49]?
Answer: 32.9 µM (inactive)

Question: And the GI50 [50]?
Answer: 24 µM (inactive)

Question: And the GI50 [51]?
Answer: 41.6 µM (inactive)

Question: And the GI50 [52]?
Answer: > 10 µM (inactive)

Question: What about the GI50 [53] of the same molecule?
Answer: > 100 µM (inactive)

Question: What about the GI50 [54] of the same molecule?
Answer: 39.4 µM (inactive)

Question: What about the GI50 [55] of the same molecule?
Answer: 21.6 µM (inactive)

Question: And the GI50 [56]?
Answer: > 100 µM (inactive)

Question: Which results are given for `CCN(CC)c1ccc(/C=C/C2=NN(c3cccc(S(=O)(=O)O)c3)C3(C2)SCC(=O)N3c2nc3ccccc3s2)cc1` (stereo unspecified)?
Answer: GI50 [1]: 63.8 µM (inactive); GI50 [2]: 27.5 µM (inactive); GI50 [3]: 32.7 µM (inactive); GI50 [4]: 25.8 µM (inactive); GI50 [5]: 60.1 µM (inactive); GI50 [6]: 76.6 µM (inactive); GI50 [57]: 21.4 µM (inactive); GI50 [7]: 24.1 µM (inactive); GI50 [8]: 27.4 µM (inactive); GI50 [9]: 36 µM (inactive); GI50 [10]: 35.2 µM (inactive); GI50 [11]: 45.1 µM (inactive); GI50 [12]: 45.6 µM; GI50 [13]: 24 µM (inactive); GI50 [15]: 44.9 µM (inactive); GI50 [16]: 36.6 µM (inactive); GI50 [17]: 33.3 µM (inactive); GI50 [18]: 41.7 µM (inactive); GI50 [19]: 17.7 µM (inactive); GI50 [20]: 23.9 µM (inactive); GI50 [21]: 45.6 µM (inactive); GI50 [22]: 41.8 µM (inactive); GI50 [23]: 25.6 µM (inactive); GI50 [24]: 55.1 µM (inactive); GI50 [25]: 23.6 µM (inactive); GI50 [26]: 39 µM (inactive); GI50 [27]: 22 µM (inactive); GI50 [28]: 24.7 µM (inactive); GI50 [29]: 16.8 µM (inactive); GI50 [30]: 37.2 µM (inactive); GI50 [31]: 36.5 µM (inactive); GI50 [32]: 18.5 µM (inactive); GI50 [33]: > 100 µM (inactive); GI50 [35]: 23.4 µM (inactive); GI50 [36]: > 100 µM (inactive); GI50 [37]: 33.6 µM (inactive); GI50 [38]: 25.8 µM (inactive); GI50 [39]: 17.9 µM (inactive); GI50 [40]: > 100 µM (inactive); GI50 [41]: 40.5 µM (inactive); GI50 [43]: 33 µM (inactive); GI50 [44]: 80.4 µM (inactive); GI50 [58]: 40.1 µM (inactive); GI50 [45]: 21.1 µM (inactive); GI50 [47]: 59 µM (inactive); GI50 [48]: 39.8 µM (inactive); GI50 [49]: 74.3 µM (inactive); GI50 [50]: 26.4 µM (inactive); GI50 [51]: 42.9 µM (inactive); GI50 [52]: 17.6 µM (inactive); GI50 [53]: 23.1 µM (inactive); GI50 [54]: 25.1 µM (inactive); GI50 [59]: 30.5 µM (inactive); GI50 [55]: 37.7 µM (inactive); GI50 [56]: 29.9 µM (inactive)

Source: ChEMBL document CHEMBL1201862, “PubChem BioAssay data set” (2004)
